Reference: patent US6673839B1, “Pharmaceutical compositions with antitumour activity” (Universita' Degli Studi di Catania, priority 1998, dated 2004)
Counter-ions that a name gives are not always drawn.

How the values were obtained:
[1] = tested on: tumour cells from lymph nodes; assay: Effects of L-aC on cell cycle of cultured secondary human tumour cells; type: cell-based; settings: 20 mg/ml
Procedure: L-aC was tested on tumour cells from lymph nodes taken from the same patients from which the primitive neoplasms had been taken.

[2] = tested on: Cells from Nasopharynx Carcinoma Explant; assay: In vitro short-term chemosensitivity assay (MTT); type: cell-based, human; settings: Table 1, 24 h
Procedure: The effects of L-aC on cells from 4 primitive epidermoid carcinomas of the larynx and 1 primitive undifferentiated carcinoma of the nasopharynx were tested.
Tissue fragments from the tumour mass were mechanically dissociated in Hank's solutions adding an antibiotic and an antifungal to obtain a cell monosuspension free of agglomerates. The resulting suspension was centrifuged at 1200 rpm for 5 minutes and the pellet was resuspended in MEM culture medium supplemented with 10% of patient serum, to obtain a concentration of 10^5 cells/ml. Subsequently, 180 μl of the resulting suspension were dispensed in microplate wells and incubated under 5% CO2 atmosphere at 37° C. for 3 days. After that, the antitumor medicaments were added in the amount of 20 μl for each well, at a concentration of 0.1×, 1× and 10× the maximum serum concentrations that can usually be reached in clinical practice. 24 h after the beginning of the exposure to the antitumour medicament, 100 μl of MTT were added, and after 4 h, a further 150 μl of dimethylsulfoxide were added.
The optical density was evaluated by a Uniscan microspectrophotometer with a […] wavelength filter. Cytotoxicity was evaluated as percentage of the optical density of the treated sample compared with the optical density of the control.
Bleomycin (BLEC), […] (CDDP), 5-fluoruracil (5-FU), vincristine (VCR), epidoxorubicin (Epi-Dx) and methotrexate (MTX) were tested for comparison purposes.
L-aC was tested at the following concentrations: 0.2-2-20 mg/ml.
In vitro short-term chemosensitivity assay (according to Hill and coll.)
(Cell Vitality Percentage After Exposure to the Antitumoral)—Raw Data
(Cells from Nasopharynx Carcinoma Explant)

[3] = tested on: Yoshida ascitogenic tumour; assay: Sprague-Dowley rats inoculated with Yoshida ascitogenic tumour, treatment; type: in vivo; set-up: surviving animals (mortality curve): unit not given here
Procedure: Yoshida tumour is a transplantable, ascitogenic experimental tumour consisting of histiocyte-like immortalized cells.
The tumour causes, on the average 7 days after the intraperitoneal inoculation in Sprague-Dowley rat, the formation of 120-150 ml of ascites which reappears 3-4 days after complete emptying of the peritoneal cavity and induces death of all the animals within 14-16 days after inoculation.
300 Sprague-Dowley rats (4 months old, mean weight: 200 g), under standard feeding and temperature conditions (25° C.), were inoculated with Yoshida tumour. The onset and evolution of the tumour were checked by daily observation and weighing. One week after the inoculation of the tumour, rats were divided in 6 groups and treated as follows:
Group 1: 50 rats were subjected, on day 8 to 14, to daily emptying of 5 ml of ascitic fluid which was substituted with 5 ml of saline solution;
Group 2: 50 rats were subjected, on day 8 to 14, to daily emptying of 5 ml of ascitic fluid which was substituted with 50 mg of L-aC diluted in 5 ml of saline solution;
Group 3: 25 rats were subjected, on day 8 to 14, to daily emptying of 5 ml of ascitic fluid which was substituted with 80 mg of L-aC diluted in 5 ml of saline solution;
Group 4: 25 rats were subjected, on day 8 to 14, to daily emptying of 5 ml of ascitic fluid which was substituted with 120 mg of L-aC diluted in 5 ml of saline solution;
Group 5: 100 rats were subjected, on day 8 to 14, to evacuation on alternate days of 5 ml of ascitic fluid which was substituted with 25 mg of L-aC diluted in 5 ml of saline solution;
Group 6: 50 rats were used as control and received no treatment.

[4] = tested on: multirecurrent urinary bladder neoplasia; assay: Patients with urinary bladder multirecurrent neoplasia treated orally; type: in vivo, human
From the text: 10 patients, 8 males and 2 females, of age from 55 to 75 years, all affected with multirecurrent urinary bladder neoplasia, at stages ranging from pT1G1NxMx and pT2G3NxMx, were orally treated with L-aC, at a standard dosage of 2 g/day, for a time from 10 to 12 months. They were then subjected to follow-up ranging from 6 to 22 months.
Before treatment with L-aC, patients had undergone an individual number of endoscopic resections (Turb), varying from 6 to 19 and in 1 case partial cystectomy with ureterocystoneostomy had been performed.
In all patients, treatment with L-aC started immediately after endoscopic resection.
Patients were subjected to quarterly endoscopic verification for the first year from the beginning of the treatment.
After 4 negative quarterly controls, the endoscopic control was performed every six months for a duration of 2 years.

## CC(=O)OC(CC(=O)[O-])C[N+](C)(C)C [L-aC, L-acetylcarnitine hydrochloride]
[1]; all samples
  activity versus that on cells from the primitive tumours: comparable
[1]; tumour with pre-treatment ratio 20/80
  G1/S+G2M ratio after treatment: 74/26
[2]; 0.1x maximum clinical serum concentration (L-aC tested at 0.2-2-20 mg/ml)
  Cell Vitality Percentage After Exposure: 58%
[2]; 1x maximum clinical serum concentration
  Cell Vitality Percentage After Exposure: 4.8%
[2]; 10x maximum clinical serum concentration
  Cell Vitality Percentage After Exposure: 4%
[3]; 6 animals sacrified at end of observation
  necroscopy finding: no presence of the disease
[3]; 47 Group 5 survivors treated a further 2 weeks
  animals died during further treatment: 21
[3]; Group 2, 50 mg lac i.p. daily day 8-14, day 0 transplant
  surviving animals (mortality curve): 50
[3]; Group 2, 50 mg lac i.p. daily day 8-14, day 1
  surviving animals (mortality curve): 50
[3]; Group 2, 50 mg lac i.p. daily day 8-14, day 2
  surviving animals (mortality curve): 50
[3]; Group 2, 50 mg lac i.p. daily day 8-14, day 3
  surviving animals (mortality curve): 50
[3]; Group 2, 50 mg lac i.p. daily day 8-14, day 4
  surviving animals (mortality curve): 50
[3]; Group 2, 50 mg lac i.p. daily day 8-14, day 5
  surviving animals (mortality curve): 50
[3]; Group 2, 50 mg lac i.p. daily day 8-14, day 6
  surviving animals (mortality curve): 50
[3]; Group 2, 50 mg lac i.p. daily day 8-14, day 7
  surviving animals (mortality curve): 50
[3]; Group 2, 50 mg lac i.p. daily day 8-14, day 8
  surviving animals (mortality curve): 42
[3]; Group 2, 50 mg lac i.p. daily day 8-14, day 9
  surviving animals (mortality curve): 32
[3]; Group 2, 50 mg lac i.p. daily day 8-14, day 10
  surviving animals (mortality curve): 21
[3]; Group 2, 50 mg lac i.p. daily day 8-14, day 11
  surviving animals (mortality curve): 17
[3]; Group 2, 50 mg lac i.p. daily day 8-14, day 12
  surviving animals (mortality curve): 12
[3]; Group 2, 50 mg lac i.p. daily day 8-14, day 13
  surviving animals (mortality curve): 5
[3]; Group 2, 50 mg lac i.p. daily day 8-14, day 14
  surviving animals (mortality curve): 0
[3]; Group 2, 50 rats, 50 mg L-aC i.p. daily day 8 to 14
  day after inoculation by which all animals died: ≤ 14 days
[3]; Group 3, 80 mg lac i.p. daily from day 8, day 0 transplant
  surviving animals (mortality curve): 25
[3]; Group 3, 80 mg lac i.p. daily from day 8, day 1
  surviving animals (mortality curve): 25
[3]; Group 3, 80 mg lac i.p. daily from day 8, day 2
  surviving animals (mortality curve): 25
[3]; Group 3, 80 mg lac i.p. daily from day 8, day 3
  surviving animals (mortality curve): 25
[3]; Group 3, 80 mg lac i.p. daily from day 8, day 4
  surviving animals (mortality curve): 25
[3]; Group 3, 80 mg lac i.p. daily from day 8, day 5
  surviving animals (mortality curve): 25
[3]; Group 3, 80 mg lac i.p. daily from day 8, day 6
  surviving animals (mortality curve): 25
[3]; Group 3, 80 mg lac i.p. daily from day 8, day 7
  surviving animals (mortality curve): 25
[3]; Group 3, 80 mg lac i.p. daily from day 8, day 8
  surviving animals (mortality curve): 12
[3]; Group 3, 80 mg lac i.p. daily from day 8, day 9
  surviving animals (mortality curve): 5
[3]; Group 3, 80 mg lac i.p. daily from day 8, day 10
  surviving animals (mortality curve): 0
[3]; Group 3, 25 rats, 80 mg L-aC i.p.
  time after 1st administration by which all animals died: ≤ 72 h
[3]; Group 3, 25 rats, 80 mg L-aC i.p. daily from day 8
  day after inoculation by which all animals died: ≤ 10 days
[3]; Group 4, 120 mg lac i.p. daily from day 8, day 0 transplant
  surviving animals (mortality curve): 25
[3]; Group 4, 120 mg lac i.p. daily from day 8, day 1
  surviving animals (mortality curve): 25
[3]; Group 4, 120 mg lac i.p. daily from day 8, day 2
  surviving animals (mortality curve): 25
[3]; Group 4, 120 mg lac i.p. daily from day 8, day 3
  surviving animals (mortality curve): 25
[3]; Group 4, 120 mg lac i.p. daily from day 8, day 4
  surviving animals (mortality curve): 25
[3]; Group 4, 120 mg lac i.p. daily from day 8, day 5
  surviving animals (mortality curve): 25
[3]; Group 4, 120 mg lac i.p. daily from day 8, day 6
  surviving animals (mortality curve): 25
[3]; Group 4, 120 mg lac i.p. daily from day 8, day 7
  surviving animals (mortality curve): 25
[3]; Group 4, 120 mg lac i.p. daily from day 8, day 8
  surviving animals (mortality curve): 0
[3]; Group 4, 25 rats, 120 mg L-aC i.p.
  time from 1st administration by which all animals died: ≤ 24 h
[3]; Group 4, 25 rats, 120 mg L-aC i.p. from day 8
  day after inoculation by which all animals died: ≤ 8 days
[3]; Group 5, 25 mg lac i.p. alternate days day 8-14, day 0 transplant
  surviving animals (mortality curve): 100
[3]; Group 5, 25 mg lac i.p. alternate days day 8-14, day 1
  surviving animals (mortality curve): 100
[3]; Group 5, 25 mg lac i.p. alternate days day 8-14, day 2
  surviving animals (mortality curve): 100
[3]; Group 5, 25 mg lac i.p. alternate days day 8-14, day 3
  surviving animals (mortality curve): 100
[3]; Group 5, 25 mg lac i.p. alternate days day 8-14, day 4
  surviving animals (mortality curve): 100
[3]; Group 5, 25 mg lac i.p. alternate days day 8-14, day 5
  surviving animals (mortality curve): 100
[3]; Group 5, 25 mg lac i.p. alternate days day 8-14, day 6
  surviving animals (mortality curve): 100
[3]; Group 5, 25 mg lac i.p. alternate days day 8-14, day 7
  surviving animals (mortality curve): 96
[3]; Group 5, 25 mg lac i.p. alternate days day 8-14, day 8
  surviving animals (mortality curve): 91
[3]; Group 5, 25 mg lac i.p. alternate days day 8-14, day 9
  surviving animals (mortality curve): 83
[3]; Group 5, 25 mg lac i.p. alternate days day 8-14, day 10
  surviving animals (mortality curve): 79
[3]; Group 5, 25 mg lac i.p. alternate days day 8-14, day 11
  surviving animals (mortality curve): 61
[3]; Group 5, 25 mg lac i.p. alternate days day 8-14, day 12
  surviving animals (mortality curve): 50
[3]; Group 5, 25 mg lac i.p. alternate days day 8-14, day 13
  surviving animals (mortality curve): 48
[3]; Group 5, 25 mg lac i.p. alternate days day 8-14, day 14
  surviving animals (mortality curve): 47
[3]; Group 5, 100 rats, 25 mg L-aC i.p. alternate days, day 15 after inoculation
  animals still alive: 47
[3]; Group 5, day 15 after inoculation
  ascites amount in survivors: remarkable reduction of the ascites amount
[3]; Group 5, day 28
  general condition of survivors: good health
[3]; Group 5, day 28 after inoculation
  ascitic fluid in survivors: complete disappearance of the ascitic fluid
[3]; Group 5 survivors, further 6 weeks
  deaths during further observation: no deaths occurred
[3]; of 47 Group 5 survivors, day 28 after inoculation
  animals still alive: 26
[4]; 2 patients completed follow-up, 6 still under study
  disease status at follow-up: free from the disease
[4]; 10 patients, oral 2 g/day 10 to 12 months after endoscopic resection, first and subsequent quarterly controls
  endoscopic control for tumour: all patients were negative for the tumour
[4]; oral 2 g/day, 10 to 12 months
  hematochemical parameters and side effects during treatment: Neither significant changes in the hematochemical parameters nor side effects of any kind were observed
